In general, EC50 refers to the concentration needed to bring the measured effect to its halfway point. Broadly, the solubility is the dissolved amount per volume that the medium holds. Low readings indicate a poorly soluble substance, high ones a readily soluble substance. What is called EC90 is the concentration needed for an effect of 90%.

One series has as its system HCoV-229E. Nature of the series: microbe, parasite or virus in culture. Format: cell-based.
Assay in series [1]: not given
The source holds these as a separate data set.

The conditions of series [2]: human.
A further series has as its target hERG (Homo sapiens, UniProt Q12809).
A further series in a line: in vitro. Conditions: human.
Series [3] concerns SARS-CoV-2. Nature of the series: Antiviral activity in A549-ACE2 cells, high content imaging of virus N protein. In kind it is cell-based, USA-WA1/2020 SARS-CoV-2. To be noted: Severe acute respiratory syndrome coronavirus 2, A549-ACE2.
In series [4] the test system is SARS-CoV-2. Nature of the series: microbe, parasite or virus in culture. Format: cell-based, Washington SARS-CoV-2.
Series [5] deals with SARS-CoV-2. Nature of the series: Antiviral activity in HeLa-ACE2 cells, high content imaging with convalescent sera. Format: cell-based, USA-WA1/2020 SARS-CoV-2. Conditions: Severe acute respiratory syndrome coronavirus 2, HeLa-ACE2, 24 h.

Where “and” joins values, the source holds several entries; their conditions need not be identical. Equal values may be shown once. Read-outs that look alike come from different tables or passages of the source. Bounds are passed on as bounds.

Chain of hERG (Q12809 whole entry): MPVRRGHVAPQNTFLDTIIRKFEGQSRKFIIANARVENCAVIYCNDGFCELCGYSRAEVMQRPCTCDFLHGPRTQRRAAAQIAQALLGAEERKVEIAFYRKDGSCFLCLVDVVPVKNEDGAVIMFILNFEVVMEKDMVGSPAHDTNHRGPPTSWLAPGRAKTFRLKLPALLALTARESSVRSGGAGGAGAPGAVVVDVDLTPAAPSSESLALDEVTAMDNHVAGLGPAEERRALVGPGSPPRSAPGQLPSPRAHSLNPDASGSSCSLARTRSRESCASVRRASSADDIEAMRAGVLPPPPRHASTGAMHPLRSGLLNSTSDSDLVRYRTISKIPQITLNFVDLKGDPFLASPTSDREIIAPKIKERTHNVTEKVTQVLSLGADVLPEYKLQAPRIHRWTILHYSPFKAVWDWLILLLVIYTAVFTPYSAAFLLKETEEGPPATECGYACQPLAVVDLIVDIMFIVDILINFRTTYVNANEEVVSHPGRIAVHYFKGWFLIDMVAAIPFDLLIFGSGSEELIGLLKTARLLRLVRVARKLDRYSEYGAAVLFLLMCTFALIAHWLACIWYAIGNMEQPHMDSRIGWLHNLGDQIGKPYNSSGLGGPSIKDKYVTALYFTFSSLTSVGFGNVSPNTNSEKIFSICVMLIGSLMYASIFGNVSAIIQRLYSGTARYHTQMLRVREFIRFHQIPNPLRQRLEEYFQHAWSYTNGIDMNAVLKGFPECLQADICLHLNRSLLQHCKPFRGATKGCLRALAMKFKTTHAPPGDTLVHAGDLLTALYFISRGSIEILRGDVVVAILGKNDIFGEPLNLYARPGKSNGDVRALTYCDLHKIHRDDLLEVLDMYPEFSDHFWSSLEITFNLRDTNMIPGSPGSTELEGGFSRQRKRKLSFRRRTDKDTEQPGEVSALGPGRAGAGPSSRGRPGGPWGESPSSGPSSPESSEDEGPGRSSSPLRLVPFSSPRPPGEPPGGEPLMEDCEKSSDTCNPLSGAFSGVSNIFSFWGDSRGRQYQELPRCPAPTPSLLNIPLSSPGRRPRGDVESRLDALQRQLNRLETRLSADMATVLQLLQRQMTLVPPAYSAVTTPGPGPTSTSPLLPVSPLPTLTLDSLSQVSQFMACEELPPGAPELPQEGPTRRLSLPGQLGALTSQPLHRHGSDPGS

Consider `COc1cccc2[nH]c(C(=O)N[C@@H](CC(C)C)C(=O)N[C@@H](C[C@@H]3CCNC3=O)C(=O)COP(=O)(O)O)cc12` [Example 49], for which the concentration giving a half-maximal response (EC50) with HCoV-229E (Human coronavirus 229E, MRC5, read-out: EC50 μM GeoMean (95% CI)) stood at 0.074 µM; in the series with HCoV-229E (read-out: EC50 μM GeoMean (95% CI)), 0.058 µM. Further, the “Total Impurities (%)” value runs as follows: (pH 1.9) 3.2% and 5.4% and 8.9%; (pH 2.9) 2.0% and 2.5% and 3.0%; (pH 4.2) 3.0% and 3.8% and 6.5%. Further, the “Increase in Total Impurities (%) - 4 days” value in series [1] (pH 3) is 0.8% and 1.2%; in series [1] (pH 4), 1.4% and 1.5% and 1.6%; in [1] (pH 5), 4.3% and 4.1% and 3.6%. For the same compound, in series [2], the “projected unbound human Cmax” value is 0.17 µM. Also, the “hERG current amplitude: no inhibition at up to” value at hERG came out at 300 µM. In addition, the CC50 in “in vitro” is > 100 µM. In addition, the solubility in the series “physchem” was > 200 mg/mL.

For the compound `CCC(CC)COC(=O)[C@H](C)N[P@](=O)(OC[C@H]1O[C@@](C#N)(c2ccc3c(N)ncnn23)[C@H](O)[C@@H]1O)Oc1ccccc1` [remdesivir, reference compound], the EC50 stood at 442 nM with SARS-CoV-2 [3] (24 hours post infection), 238 nM in the series with SARS-CoV-2 [3] (48 hours post infection) and 73.9 nM in the series with SARS-CoV-2 [5]. The EC90 is 1190 nM in the series on SARS-CoV-2 [3] (24 hours post infection), 592 nM in the series on SARS-CoV-2 [3] (48 hours post infection) and 168 nM in the series on SARS-CoV-2 [5]. The “fold reduction in virion replication” value in the series with SARS-CoV-2 [4] (0.5 μM) was 93.1 fold; in the series on SARS-CoV-2 [4] (10 μM) it was 2590 fold.

The record behind these values is US11926642B2, “Compounds and methods for the treatment of COVID-19” (priority 2020, dated 2024).
